US20260285857A1, “BICYCLIC AND HETEROCYCLIC AMIDE COMPOUNDS” (priority 2024, published 2026)

These compounds were tested on immunoglobulin light chain protein WIL-FL T46L (assay: Differential scanning fluorimetry (thermal shift) assay). Conditions: Table A; temperature shift [Tm]compound-[Tm]vehicle; recombinant WIL-FL T46L.
Assay type: binding
Cc1cc(N2CC[C@](C)(c3ccccc3)C2)cn2nc(C(=O)NC3CC4(C3)CN(c3ccnc(O)c3)C4)nc12 [Compound 223] was tested, and the DSF was “***** (>2.5° C.=*****)”.
For Cc1cc(N2CC[C@](C)(c3ccccc3)C2)cn2nc(C(=O)NC34COC(C#N)(C3)C4)nc12 [Compound 127], the DSF was “***** (>2.5° C.=*****)”.
For Cc1cc(OC[C@H](C)c2cccc(F)c2)cn2nc(C(=O)N3CC[C@@](C)(O)C3)nc12 [Compound 309], the DSF was “**** (>1.5-2.5° C.=****)”.
With Cc1cc(N2CC[C@](C)(c3ccccc3)C2)cn2nc(C34CC(C(N)=O)(CO3)C4C(N)=O)nc12 (some centres unmarked) [Compound 45] the DSF was “***** (>2.5° C.=*****)”.
With CNC(=O)c1cn2cc(N3CC[C@](C)(c4ccccc4)C3)cc(C)c2n1 [Compound 434] the DSF was “***** (>2.5° C.=*****)”.
In the case of Cc1cc(N2CC[C@](C)(c3ccccc3)C2)cn2nc(C(=O)N[C@@H](C)CO)nc12 [Compound 139], the DSF is reported as “***** (>2.5° C.=*****)”.
Cc1cc(N2CC[C@](C)(c3ccccc3)C2)cn2nc(C(=O)N3CCOC4(CCN(c5cccc(C(=O)O)n5)C4)C3)nc12 (some centres unmarked) [Compound 242] was tested, and the DSF was “***** (>2.5° C.=*****)”.
In the case of CNC(=O)c1nc2c(C)cc(N3CCC(C)(c4nccs4)C3)cn2n1 (centres unmarked) [Compound 15, N,8-dimethyl-6-(3-methyl-3-(thiazol-2-yl)pyrrolidin-1-yl)-[1,2,4]triazolo[1,5-a]pyridine-2-carboxamide], the DSF is reported as “***** (>2.5° C.=*****)”.
In the case of Cc1cc(OC[C@H](C)c2ccccc2)cn2nc(C(=O)NC3CCN(c4ccnc(C(=O)O)c4)CC3)nc12 [Compound 320], the DSF is reported as “***** (>2.5° C.=*****)”.
In the case of Cc1cc(N2CC[C@](C)(c3ccccc3)C2)cn2nc(C(=O)N3CC4(CCN4Cc4cccc(C(=O)O)n4)C3)nc12 [Compound 260], the DSF is reported as “***** (>2.5° C.=*****)”.

Same assay, conditions: Table B; temperature shift [Tm]compound-[Tm]vehicle; recombinant WIL-FL T46L
With Cc1cc(N2CC[C@](C)(c3ccccc3)C2)cn2nc(C(=O)N[C@H]3[C@@H]4CN(c5cccc(C(=O)O)n5)C[C@@H]43)nc12 [Compound 628] the DSF was “***** (>2.5° C.=*****)”.
For Cc1cc(N2CC[C@](C)(c3cccc(F)c3)C2)cn2nc(C34CC(CO3)C4N)nc12 (some centres unmarked) [Compound 508], the DSF was “***** (>2.5° C.=*****)”.
For C[C@]1(c2ccccc2)CCN(c2cc(CO)c3nc(C(=O)N4CCC5(C4)CN(c4cccc(C(=O)O)n4)C5)nn3c2)C1 [Compound 618], the DSF was “***** (>2.5° C.=*****)”.
With Cc1cc(N2CC[C@](C)(c3ccccc3)C2)cn2nc(C(=O)N3CC(CNc4cccc(C(=O)O)n4)C(C)(O)C3)nc12 (stereo partly drawn) [Compound 696, 6-(((4-hydroxy-4-methyl-1-(8-methyl-6-((R)-3-methyl-3-phenylpyrrolidin-1-yl)-[1,2,4]triazolo[1,5-a]pyridine-2-carbonyl)pyrrolidin-3-yl)methyl)amino)picolinic acid] the DSF was “***** (>2.5° C.=*****)”.
With Cc1cc(N2CC[C@](C)(c3ccccc3)C2)cn2nc(C(=O)N3C[C@@H]4[C@@H](C(=O)O)CO[C@@H]4C3)nc12 [Compound 595] the DSF was “***** (>2.5° C.=*****)”.
For Cc1cc(N2CC[C@](C)(c3ccccc3)C2)cn2nc(C34CC(CO)(CO3)C4N3CC4(COC4)NC3=O)nc12 (some centres unmarked) [Compound 577], the DSF was “***** (>2.5° C.=*****)”.
For Cc1cc(N2CC[C@](C)(c3ccccc3)C2)cn2nc(C(=O)N[C@@H]3CCCN(c4cccc(C(=O)O)n4)C3)nc12 [Compound 693], the DSF was “***** (>2.5° C.=*****)”.
Cc1cc(N2CC[C@](C)(c3ccccc3)C2)cn2nc(C(=O)N3CCc4c(nnn4-c4ccnc(C(=O)O)c4)C3)nc12 [Compound 639] was tested, and the DSF was “***** (>2.5° C.=*****)”.
With Cc1cc(N2CC[C@](C)(c3ccccc3)C2)cn2nc(C34CC(CO3)C4NC(=O)C3(C)CN(c4cccc(C(=O)O)n4)C3)nc12 (stereo partly drawn) [Compound 533, 6-(3-methyl-3-((1-(8-methyl-6-((R)-3-methyl-3-phenylpyrrolidin-1-yl)-[1,2,4]triazolo[1,5-a]pyridin-2-yl)-2-oxabicyclo[2.1.1]hexan-5-yl)carbamoyl)azetidin-1-yl)picolinic acid] the DSF was “***** (>2.5° C.=*****)”.
In the case of Cc1cc(N2CC[C@](C)(c3ccccc3)C2)cn2nc(C(=O)NC3CCC4CCC3N4c3cccc(C(=O)O)n3)nc12 (some centres unmarked) [Compound 620], the DSF is reported as “***** (>2.5° C.=*****)”.
